According to PubChem BioAssay (NCI):
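Five concentrations, 48 hours, 96-well plates. GI50 = concentration required for 50% inhibition of growth. The concentration for full growth arrest is given as TGI.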 Where a SMILES comes first, the peptide text is derived from it. [ ]: non-standard residue; d: D form. ξ: configuration not given here. Pentanoyl(2-O,4-OH,5-Cl) = O=C(O)C(O)CC(O)CCl; Ile(3ξ) = CCC(C)[C@H](N)C(=O)O; NMeV = CN[C@H](C(=O)O)C(C)C; NMeA = CN[C@@H](C)C(=O)O; βAla = NCCC(=O)O

What was measured:
Assay in all cases: NCI anticancer screen, dose series, 48 h
UACC-257 melanoma = tested on: UACC-257 melanoma
SK-MEL-2 melanoma = tested on: SK-MEL-2 melanoma
KM12 colon = tested on: KM12 colon
OVCAR-8 ovarian = tested on: OVCAR-8 ovarian
K-562 leukemia = tested on: K-562 leukemia
IGROV1 ovarian = tested on: IGROV1 ovarian
HCC-2998 colon = tested on: HCC-2998 colon
MOLT-4 leukemia = tested on: MOLT-4 leukemia
HCT-15 colon = tested on: HCT-15 colon
MDA-MB-231 breast = tested on: MDA-MB-231 breast

SMILES	GI50 (UACC-257 melanoma)	TGI (UACC-257 melanoma)	GI50 (SK-MEL-2 melanoma)	TGI (SK-MEL-2 melanoma)	GI50 (KM12 colon)	TGI (KM12 colon)	GI50 (OVCAR-8 ovarian)	TGI (OVCAR-8 ovarian)	GI50 (K-562 leukemia)	TGI (K-562 leukemia)	GI50 (IGROV1 ovarian)	TGI (IGROV1 ovarian)	GI50 (HCC-2998 colon)	TGI (HCC-2998 colon)	GI50 (MOLT-4 leukemia)	TGI (MOLT-4 leukemia)	TGI (HCT-15 colon)	TGI (MDA-MB-231 breast)	GI50 (HCT-15 colon)	GI50 (MDA-MB-231 breast)
CC[O-].CC[O-].[O-]c1ccccc1C=NC12CC3CC(CC(C3)C1)C2.[O-]c1ccccc1C=NC12CC3CC(CC(C3)C1)C2.[Ti+4]	> 100 µM	> 100 µM	35.8 µM	> 100 µM	> 100 µM	> 100 µM	> 100 µM	> 100 µM	31.4 µM	> 100 µM	> 100 µM	> 100 µM	> 100 µM	> 100 µM	> 100 µM	> 100 µM				
Cc1cccc(-c2nc(=S)[nH][nH]2)c1		> 100 µM		> 100 µM		> 100 µM		> 100 µM		> 100 µM		> 100 µM		> 100 µM		> 100 µM	> 100 µM			
CC(C)(Sc1cc(C(C)(C)C)c(O)c(C(C)(C)C)c1)Sc1cc(C(C)(C)C)c(O)c(C(C)(C)C)c1		> 100 µM		> 100 µM		> 100 µM		> 100 µM		3.35 µM		> 100 µM					> 100 µM	> 100 µM		
COc1ccc(CC(C)NCC(O)c2ccc(O)c(NC=O)c2)cc1 (stereo not given)		> 100 µM		> 100 µM		> 100 µM		> 100 µM		> 100 µM		> 100 µM				> 100 µM	> 100 µM	> 100 µM		
O=c1c2ccccc2c(=O)n2n1-c1cccc(c1)CSSCc1cccc-2c1			> 100 µM	> 100 µM	> 100 µM	> 100 µM	> 100 µM	> 100 µM	> 100 µM	> 100 µM	> 100 µM	> 100 µM	> 100 µM	> 100 µM	> 100 µM	> 100 µM	> 100 µM		> 100 µM	
CC(C)N1CCOC(c2ccc(O)c(O)c2)C1 (stereo not given)		> 100 µM		> 100 µM		> 100 µM		> 100 µM		> 100 µM		> 100 µM		> 100 µM		> 100 µM	> 100 µM			
O=c1c(-c2cccc3ccccc23)c(-c2cccc3ccccc23)c1=O		> 39.6 µM		> 78.2 µM		21.1 µM		13.6 µM		> 33.3 µM		> 100 µM		4.95 µM		> 45.2 µM	> 52.9 µM			
CS(=O)(=O)N(CCC#N)c1ccc(/C=C2\N=C(c3ccccc3Cl)OC2=O)cc1		> 100 µM		> 100 µM		> 100 µM		> 100 µM		> 100 µM		> 100 µM		> 100 µM		> 100 µM	> 100 µM			
CN(C)C(=C1C(Br)=C(Br)C(Br)=C1Br)N(C)C		> 100 µM		> 100 µM		> 100 µM		> 100 µM		> 100 µM		> 100 µM		> 100 µM		> 100 µM	> 100 µM			
O=C1CN=C(c2ccccc2)c2ccncc2N1		72.5 µM		> 100 µM		37 µM		> 100 µM		> 100 µM		> 100 µM		> 100 µM		> 100 µM				
O=C(c1ccccc1)[C@H]1Nc2ccc(Cl)cc2[C@H]2c3ccccc3O[C@H]21		8.48 µM		27.3 µM		30.2 µM		34.6 µM		36.7 µM		38.2 µM		31.5 µM		37.7 µM	28.4 µM			
C=C1C(=O)O[C@@H]2C[C@@]3(C)CCC[C@H](C)C3=C[C@H]12 (tested in a mixture with another compound)		3.75 µM		5.41 µM		8.89 µM		3.13 µM				7.71 µM		15.5 µM		3.73 µM	4.39 µM	6.72 µM		
O=c1[nH]c(=O)n(Cc2ccc(C34CC5CC(CC(C5)C3)C4)c(O)c2)cc1F			15.8 µM	39.4 µM	12.1 µM	28.5 µM			3.49 µM	18.2 µM			14.5 µM	28.1 µM	12.4 µM	32.4 µM	22.3 µM	28.9 µM	10.2 µM	14.3 µM
Clc1ccc2c(NC3CCC(NC4CCCCC4)CC3)ccnc2c1 (stereo not given)	2.18 µM	4.17 µM	1.97 µM	3.95 µM	5.34 µM	18.9 µM	4.43 µM	19.3 µM			6.64 µM	30.8 µM	2.49 µM	8.13 µM			12.8 µM	23.8 µM	3.52 µM	5.94 µM
Cc1ccc(/C=C/C(=O)c2ccc(F)cc2)s1	3.33 µM	14.1 µM	4.35 µM	15.6 µM	2.75 µM	7.52 µM	2.74 µM	8.72 µM			2.17 µM	5.25 µM	2.2 µM	5.14 µM	3.39 µM	> 100 µM	18.4 µM	24 µM	4.14 µM	10.2 µM
CN(N=O)C(=O)NC(CCCCNC(=O)OCc1ccccc1)C(=O)OCc1ccccc1 (stereo not given)		33.5 µM		85.5 µM		> 100 µM		36.7 µM		> 100 µM		> 100 µM		> 100 µM		64.9 µM	> 100 µM			
Cc1cc2c(cc1Cl)SC(=Nc1ccc(Cl)cc1)N(S(=O)(=O)c1ccc(Br)s1)S2(=O)=O	16 µM	38.7 µM	35.3 µM	> 100 µM	16.2 µM	37.7 µM	18.8 µM	46.1 µM	16.4 µM	77.5 µM	17.6 µM	55.2 µM					29.7 µM	38.9 µM	11.9 µM	12.9 µM
CCC(C)[C@@H]1NC(=O)[C@@H]2CCCN2C(=O)C(CC(O)CCl)OC(=O)CCNC(=O)[C@H](C)N(C)C(=O)[C@H](C(C)C)N(C)C1=O (stereo not given in full) (cyclo([Ile(3ξ)][NMeV][NMeA][βAla][Pentanoyl(2-O,4-OH,5-Cl)]P))		> 86 µM		1.89 µM		> 100 µM		> 100 µM		> 100 µM		> 100 µM				> 100 µM	> 100 µM	> 100 µM		
CN(c1ccccc1)c1nc(=[N+](C)C)ss1		> 100 µM		> 100 µM		> 100 µM		> 100 µM		> 100 µM		> 100 µM		> 100 µM			> 100 µM			
